In ChEMBL document CHEMBL1139518, “A new structural motif for mu-opioid antagonists” (J Med Chem, 2005) one finds Ki, Ratio and Ke data, which are given here for five compounds.

Where a SMILES comes first, the peptide text is derived from it.

One experiment has as its target Mu-type opioid receptor (Rattus norvegicus, UniProt P33535). Briefly: Inhibition of [3H]naloxone binding to rat Opioid receptor mu.
Experiment [1] can be described thus: Ratio of antagonist activity against TAPP-induced contractions of guinea pig ileum to that of DPDPE-induced contractions of mouse vas deferens. Type of experiment: functional, Cavia porcellus.
In experiment [2] the target is Delta-type opioid receptor (Rattus norvegicus, UniProt P33533). As to the kind of experiment: Inhibition of [3H][Ile5,6]-deltorphin I binding to rat Opioid receptor delta.
Delta-type opioid receptor, sequence (P33533 whole entry): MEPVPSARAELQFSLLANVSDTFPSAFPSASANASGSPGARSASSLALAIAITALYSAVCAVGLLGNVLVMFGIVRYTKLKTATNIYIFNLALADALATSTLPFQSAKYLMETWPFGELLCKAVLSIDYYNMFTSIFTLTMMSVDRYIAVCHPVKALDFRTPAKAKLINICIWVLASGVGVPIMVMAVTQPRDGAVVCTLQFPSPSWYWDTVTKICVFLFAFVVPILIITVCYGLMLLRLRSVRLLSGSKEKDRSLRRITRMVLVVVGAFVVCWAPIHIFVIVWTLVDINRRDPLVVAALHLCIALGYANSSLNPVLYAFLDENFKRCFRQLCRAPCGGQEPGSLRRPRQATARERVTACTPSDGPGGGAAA
Experiment [3] is described as follows: Antagonist activity of compound against TAPP-induced electrically evoked contractions of guinea pig ileum. The experiment is classed as functional, Cavia porcellus.
For experiment [4], the species on record is Mus musculus. As to the kind of experiment: Antagonist activity of compound against DPDPE-induced electrically evoked contractions of mouse vas deferens. Type of experiment: functional.
Experiment [5] is filed under the species Mus musculus. Briefly: Atagonist activity of compound against DPDPE-induced electrically evoked contractions of mouse vas deferens. The experiment is classed as functional.

The term Ki denotes a measure of affinity in units of concentration, obtained from inhibition or displacement. High values mean lower affinity, low ones higher affinity.

Mu-type opioid receptor, sequence (P33535 whole entry): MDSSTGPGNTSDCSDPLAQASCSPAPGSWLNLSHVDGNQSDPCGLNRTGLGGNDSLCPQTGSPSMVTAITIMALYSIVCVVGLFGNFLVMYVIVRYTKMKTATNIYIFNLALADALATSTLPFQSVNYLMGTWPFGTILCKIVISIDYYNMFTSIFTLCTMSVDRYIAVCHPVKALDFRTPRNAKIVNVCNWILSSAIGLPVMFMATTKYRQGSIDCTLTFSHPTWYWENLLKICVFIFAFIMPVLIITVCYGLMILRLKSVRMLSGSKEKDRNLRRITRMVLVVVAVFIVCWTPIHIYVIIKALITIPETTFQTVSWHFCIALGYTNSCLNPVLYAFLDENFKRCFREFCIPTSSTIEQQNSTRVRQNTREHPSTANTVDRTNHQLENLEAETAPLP

`Cc1cc(O)cc(C)c1C[C@@H](N)CN1Cc2ccccc2C[C@H](NC(=O)Cc2ccccc2)C1=O`: the inhibitory constant (Ki) at Mu-type opioid receptor turned out to be 15.1 nM; in experiment [2], 684 nM. In addition, the Ratio in experiment [1] came out at 1.666. Moreover, the figures for the Ke (in experiment [3]; in the experiment listed under Mus musculus [4]) were 207 nM and 185 nM, respectively.
Taken in the same sequence, the figures for `Cc1cc(O)cc(C)c1C[C@H](N)CN1Cc2ccccc2C[C@@H](NC(=O)Cc2ccccc2)C1=O` were 23.5 nM, 1100 nM, 0.5, 823 nM and 1590 nM.
For `Cc1cc(O)cc(C)c1C[C@@H](N)CN1Cc2ccccc2C[C@@H](NC(=O)Cc2ccccc2)C1=O` the same measures were 41.7 nM, 2900 nM, 0.058, 85.1 nM and 1440 nM.
For `Cc1cc(O)cc(C)c1C[C@H](N)CN1Cc2ccccc2C[C@H](NC(=O)Cc2ccccc2)C1=O` the same measures were 3.3 nM, 25.8 nM, 0.125, 38.6 nM and 318 nM.
With `N[C@@H](Cc1ccc(O)cc1)C(=O)N1Cc2ccccc2C[C@H]1C(=O)N[C@@H](Cc1ccccc1)C(=O)N[C@@H](Cc1ccccc1)C(=O)O` (HELM PEPTIDE1{Y.[Tic].F.F}$$$$V2.0), in the experiment filed under Mus musculus [5], the Ke was 4.8 nM.
